Test results taken from article PMC10507807, “De novo design of a stapled peptide targeting SARS-CoV-2 spike protein receptor-binding domain” (RSC Medicinal Chemistry, 2023).
Entries after “also recorded” stand apart in the source; their conditions may differ. Starred links: 1 amine or outer side, 2 acyl side, 3 side chain; linkers in the order of their positions; H or OH if unused. Positions of bridges follow the written chain, without caps; N, C: chain ends. Non-standard residues stand in square brackets, D forms with d. Residues, ends and D or L forms follow the SMILES beside them. X1 = C[C@@](CC=[*:3])(N[*:1])C(=O)[*:2]

How the values were obtained:
[1] = target: recombinant SARS-CoV-2 spike B.1.617.2 (delta variant); type: binding
[2] = test system: omicron (B.1.1.529) variant; type: binding, SARS-CoV-2
[3] = test system: SARS-CoV-2 alpha variant (B.1.1.7); type: cell-based

Compound	Kd ([1]; read-out: KD (dissociation constant)) [µM]	binding to omicron variant [2]	inhibition of SARS-CoV-2 virus replication [3]	decrease of viral replication compared to PBS control ([3]; 48 h) [%]	dissociation constant of ACE2 with delta variant compared with wild-type spike [1]
CSCC[C@@H]1NC(=O)[C@H](CC(N)=O)NC(=O)[C@@H]2CC(=O)NCCCC[C@H](NC(=O)[C@H](Cc3c[nH]c4ccccc34)NC(=O)[C@@H](NC(=O)[C@H](CCCCN)NC(=O)[C@H](Cc3ccc(O)cc3)NC(=O)[C@H](CC(C)C)NC(=O)[C@H](Cc3c[nH]c4ccccc34)NC(=O)[C@H](CCC(=O)O)NC(=O)[C@@H](NC(=O)CNC(C)=O)[C@@H](C)O)C(C)C)C(=O)N[C@@H](C)C(=O)N[C@@H](Cc3ccccc3)C(=O)N[C@@](C)(C/C=C/C[C@@](C)(C(=O)O)NC1=O)C(=O)N2 [pep39] (Ac-GTEWLYKVWKAF[X1]DNM[X1]-OH; lactam 10-14; staple (E) 13-17)	4.1 ± 1.4	not as promising as those observed with the original spike protein and the delta variant	strongly inhibits SARS-CoV-2 virus replication in Vero E6 cells; also recorded: SARS-CoV-2 viral replication was significantly inhibited	82.3	
ACE2					more favorable for binding than the wild-type spike protein
